# Toxic doses and inconclusive results are not listed.
# System: L1210 leukemia ip in BDF1 mice, survival T/C
# Test: NCI In Vivo Anticancer Drug Screen. Data for tumor model L1210 Leukemia (intraperitoneal) in B6D2F1 (BDF1) mice
# Details: endpoint: mean survival time, higher = longer survival
# In short: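 Transplantable tumor model; survival measured in treated vs vehicle control mice. Value = treated/control.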
# [1] = dose: 100.0 mg/kg/injection, schedule: Q01DX001 (ip), vehicle: carboxymethylcellulose (CMC)
# [2] = dose: 200.0 mg/kg/injection, schedule: Q01DX001 (ip), vehicle: carboxymethylcellulose (CMC)
# [3] = dose: 100.0 mg/kg/injection, schedule: Q01DX009 (ip), vehicle: Klucel (hydroxypropylcellulose) (HPC)
# [4] = dose: 200.0 mg/kg/injection, schedule: Q01DX009 (ip), vehicle: Klucel (hydroxypropylcellulose) (HPC)
# [5] = dose: 100.0 mg/kg/injection, schedule: Q01DX001 (ip), vehicle: saline
# [6] = dose: 100.0 mg/kg/injection, schedule: Q04DX003 (ip), vehicle: Klucel (hydroxypropylcellulose) (HPC)
# [7] = dose: 200.0 mg/kg/injection, schedule: Q01DX001 (ip), vehicle: saline
# [8] = dose: 200.0 mg/kg/injection, schedule: Q04DX003 (ip), vehicle: Klucel (hydroxypropylcellulose) (HPC)
# [9] = dose: 400.0 mg/kg/injection, schedule: Q01DX001 (ip), vehicle: saline
# [10] = dose: 400.0 mg/kg/injection, schedule: Q01DX009 (ip), vehicle: Klucel (hydroxypropylcellulose) (HPC)
# [11] = dose: 400.0 mg/kg/injection, schedule: Q04DX003 (ip), vehicle: Klucel (hydroxypropylcellulose) (HPC)
compound,measurement,setting,value
CC(=O)N(C)c1ccc(/C=C2\C=Cc3ccccc32)cc1,T/C,"dose: 50.0 mg/kg/injection, schedule: Q01DX001 (ip), vehicle: carboxymethylcellulose (CMC)",96 % of control
same,T/C,[1],98 % of control
same,T/C,[2],96 % of control
same,T/C,"dose: 400.0 mg/kg/injection, schedule: Q01DX001 (ip), vehicle: carboxymethylcellulose (CMC)",96 % of control
CCCCN=C(C(=O)NCCCC)c1ccccc1NC(C)=O,T/C,[3],97 % of control
same,T/C,[4],86 % of control
CCOC(=O)CCC(NC(=O)c1ccc(N(C)S(=O)(=O)c2ccc(C)cc2)c(F)c1)C(=O)OCC (stereo unspecified),T/C,"dose: 75.0 mg/kg/injection, schedule: Q01DX001 (ip), vehicle: saline",100 % of control
same,T/C,"dose: 75.0 mg/kg/injection, schedule: Q04DX003 (ip), vehicle: saline",103 % of control
same,T/C,"dose: 150.0 mg/kg/injection, schedule: Q01DX001 (ip), vehicle: saline",98 % of control
same,T/C,"dose: 150.0 mg/kg/injection, schedule: Q04DX003 (ip), vehicle: saline",95 % of control
same,T/C,"dose: 300.0 mg/kg/injection, schedule: Q01DX001 (ip), vehicle: saline",96 % of control
same,T/C,"dose: 300.0 mg/kg/injection, schedule: Q04DX003 (ip), vehicle: saline",103 % of control
CN=C(N)c1ccc(NC(=O)c2ccc(C(=O)Nc3ccc(C(N)=NC)cc3)c(N)c2)cc1,T/C,"dose: 0.37 mg/kg/injection, schedule: Q01DX Z (ip), vehicle: water",104 % of control
same,T/C,"dose: 0.75 mg/kg/injection, schedule: Q01DX Z (ip), vehicle: water",121 % of control
same,T/C,"dose: 1.5 mg/kg/injection, schedule: Q01DX Z (ip), vehicle: water",123 % of control
same,T/C,"dose: 1.75 mg/kg/injection, schedule: Q01DX Z (ip), vehicle: water",154 % of control
same,T/C,"dose: 2.0 mg/kg/injection, schedule: Q01DX Z (ip), vehicle: carboxymethylcellulose (CMC)",189 % of control
same,T/C,"dose: 4.0 mg/kg/injection, schedule: Q01DX Z (ip), vehicle: carboxymethylcellulose (CMC)",218 % of control
same,T/C,"dose: 6.0 mg/kg/injection, schedule: Q01DX Z (ip), vehicle: carboxymethylcellulose (CMC)",184 % of control
same,T/C,"dose: 6.7 mg/kg/injection, schedule: Q01DX001 (sc), vehicle: water",110 % of control
same,T/C,"dose: 8.0 mg/kg/injection, schedule: Q01DX Z (ip), vehicle: carboxymethylcellulose (CMC)",170 % of control
same,T/C,"dose: 10.0 mg/kg/injection, schedule: Q01DX001 (sc), vehicle: water",107 % of control
same,T/C,"dose: 10.0 mg/kg/injection, schedule: Q01DX Z (ip), vehicle: carboxymethylcellulose (CMC)",107 % of control
same,T/C,"dose: 12.0 mg/kg/injection, schedule: Q01DX Z (ip), vehicle: carboxymethylcellulose (CMC)",96 % of control
same,T/C,"dose: 14.0 mg/kg/injection, schedule: Q01DX Z (ip), vehicle: carboxymethylcellulose (CMC)",88 % of control
same,T/C,"dose: 15.0 mg/kg/injection, schedule: Q01DX001 (sc), vehicle: water",119 % of control
same,T/C,"dose: 25.0 mg/kg/injection, schedule: Q01DX Z (oral), vehicle: water",110 % of control
same,T/C,"dose: 50.0 mg/kg/injection, schedule: Q01DX Z (oral), vehicle: water",100 % of control
same,T/C,"dose: 100.0 mg/kg/injection, schedule: Q01DX Z (oral), vehicle: water",97 % of control
same,T/C,"dose: 200.0 mg/kg/injection, schedule: Q01DX Z (oral), vehicle: water",110 % of control
NCc1cc[n+]([O-])cc1,T/C,"dose: 25.0 mg/kg/injection, schedule: Q04DX002 (ip), vehicle: saline",102 % of control
same,T/C,"dose: 50.0 mg/kg/injection, schedule: Q04DX002 (ip), vehicle: saline",102 % of control
same,T/C,"dose: 100.0 mg/kg/injection, schedule: Q04DX002 (ip), vehicle: saline",102 % of control
same,T/C,"dose: 400.0 mg/kg/injection, schedule: Q04DX002 (ip), vehicle: saline",88 % of control
COc1cc(C2=C3C(=O)OC[C@@H]3Cc3cc4c(cc32)OCO4)cc(OC)c1OC,T/C,[5],94 % of control
same,T/C,[3],91 % of control
same,T/C,[6],95 % of control
same,T/C,"dose: 100.0 mg/kg/injection, schedule: Q04DX003 (ip), vehicle: saline",105 % of control
same,T/C,[7],104 % of control
same,T/C,[4],94 % of control
same,T/C,[8],97 % of control
same,T/C,"dose: 200.0 mg/kg/injection, schedule: Q04DX003 (ip), vehicle: saline",96 % of control
same,T/C,[9],93 % of control
same,T/C,[10],96 % of control
same,T/C,[11],92 % of control
same,T/C,"dose: 400.0 mg/kg/injection, schedule: Q04DX003 (ip), vehicle: saline",101 % of control
CCCCOC(=O)c1ccc(NC(=O)Nc2ccc(SC)cc2)cc1,T/C,[3],95 % of control
same,T/C,[4],95 % of control
same,T/C,[10],95 % of control
O=C1c2ccccc2C(=O)N1CCOc1ccc([N+](=O)[O-])cc1,T/C,"dose: 100.0 mg/kg/injection, schedule: Q01DX001 (ip), vehicle: gum acacia",92 % of control
same,T/C,"dose: 200.0 mg/kg/injection, schedule: Q01DX001 (ip), vehicle: gum acacia",99 % of control
same,T/C,"dose: 400.0 mg/kg/injection, schedule: Q01DX001 (ip), vehicle: gum acacia",92 % of control
CCCCCCCCCCCCCCOc1ccc(C=O)cc1OC,T/C,[6],96 % of control
same,T/C,[8],93 % of control
same,T/C,[11],91 % of control
C[C@]1(O)CC[C@H]2[C@@H]3CCC4=CC(=O)CC[C@]4(C)[C@@]3(F)C(=O)C[C@@]21C,T/C,[3],101 % of control
same,T/C,"dose: 100.0 mg/kg/injection, schedule: Q04DX003 (ip), vehicle: other",92 % of control
same,T/C,[4],101 % of control
same,T/C,"dose: 200.0 mg/kg/injection, schedule: Q04DX003 (ip), vehicle: other",108 % of control
same,T/C,[10],95 % of control
same,T/C,"dose: 400.0 mg/kg/injection, schedule: Q04DX003 (ip), vehicle: other",94 % of control
S=C(Nc1ccccc1)N(C1CCCCC1)C1CCCCC1,T/C,"dose: 400.0 mg/kg/injection, schedule: Q01DX009 (ip), vehicle: saline with Tween-80",158 % of control
COc1ccc(OC)c2c1CCCC2=O,T/C,"dose: 50.0 mg/kg/injection, schedule: Q01DX001 (ip), vehicle: saline",96 % of control
same,T/C,[5],99 % of control
same,T/C,[7],91 % of control
same,T/C,[9],96 % of control
CCN(CC)CCCC(C)Nc1c2ccc(Cl)cc2nc2ccc(OC)cc12 (stereo unspecified),T/C,"dose: 7.5 mg/kg/injection, schedule: Q01DX Z (ip), vehicle: saline",93 % of control
same,T/C,"dose: 15.0 mg/kg/injection, schedule: Q01DX Z (ip), vehicle: saline",95 % of control
same,T/C,"dose: 25.0 mg/kg/injection, schedule: Q01DX015 (ip), vehicle: carboxymethylcellulose (CMC)",102 % of control
same,T/C,"dose: 30.0 mg/kg/injection, schedule: Q01DX Z (ip), vehicle: saline",96 % of control
same,T/C,"dose: 50.0 mg/kg/injection, schedule: Q01DX015 (ip), vehicle: carboxymethylcellulose (CMC)",102 % of control
same,T/C,"dose: 50.0 mg/kg/injection, schedule: Q01DX Z (ip), vehicle: water",104 % of control
same,T/C,[1],96 % of control
same,T/C,"dose: 100.0 mg/kg/injection, schedule: Q01DX015 (ip), vehicle: carboxymethylcellulose (CMC)",102 % of control
same,T/C,[2],116 % of control
C/C=C/C(O)(C(=O)OCC)C1CCCCC1 (stereo unspecified),T/C,"dose: 100.0 mg/kg/injection, schedule: Q01DX001 (ip), vehicle: other",107 % of control
same,T/C,"dose: 200.0 mg/kg/injection, schedule: Q01DX001 (ip), vehicle: other",98 % of control
same,T/C,"dose: 400.0 mg/kg/injection, schedule: Q01DX001 (ip), vehicle: other",102 % of control
CCOC(=O)/C(C#N)=C/c1cccn1Cc1ccc2ccccc2c1,T/C,"dose: 100.0 mg/kg/injection, schedule: Q04DX002 (ip), vehicle: saline with Tween-80",101 % of control
same,T/C,"dose: 200.0 mg/kg/injection, schedule: Q04DX002 (ip), vehicle: saline with Tween-80",90 % of control
same,T/C,"dose: 400.0 mg/kg/injection, schedule: Q04DX002 (ip), vehicle: saline with Tween-80",90 % of control

# Source: PubChem BioAssay AID248 (DTP/NCI, 2004)
